Data from patent US20190269129A1, “COMPOSITION CONTAINING 1,2-DIBROMO-2,4-DICYANOBUTANE (DBDCB) AND ZINC PYRITHIONE (ZPT)” (LANXESS Deutschland GmbH, priority 2014, published 2019).

Legend:
Format in all cases: cell-based
Details in all cases: 0.05 wt % biocide added
[1] = tested on: Bacteria: Escherichia coli, Pseudomonas aeruginosa and Staphylococcus aureus; test: Microbiological stress test, preservation of a polymer emulsion: bacteria
Source text: (§1) The preserving effect of an inventive composition comprising DBDCB and ZPT in a polymer emulsion (acrylate-based, pH=6.5) was investigated using a microbiological stress test. The microbiological stress test examines the susceptibility of water-based systems to microbial attack and the effect of preservatives. To this end, the preservatives are incorporated in defined concentrations into the water-based systems. […] Having knowledge of the microorganism populations prevalent in polymer emulsions and dispersions the experiment employed a mixture of the following microorganism types for testing: Bacteria: Escherichia coli, Pseudomonas aeruginosa and Staphylococcus aureus.

[2] = tested on: Molds: Acremonium strictum, Aspergillus niger and Geotrichum candidu; test: Microbiological stress test, preservation of a polymer emulsion: molds
Source text: as §1, with “Molds: Acremonium strictum, Aspergillus niger” for “Bacteria: Escherichia coli, Pseudomonas aeruginosa”, “Geotrichum candidu.” for “Staphylococcus aureus.”

[3] = tested on: Yeasts: Candida albicans and Rhodotorula rubra; test: Microbiological stress test, preservation of a polymer emulsion: yeasts
Source text: as §1, with “Yeasts: Candida albicans” for “Bacteria: Escherichia coli, Pseudomonas aeruginosa”, “Rhodotorula rubra.” for “Staphylococcus aureus.”

[4] = week 1, polymer emulsion pH 6.5
[5] = week 2, polymer emulsion pH 6.5
[6] = week 3, polymer emulsion pH 6.5
[7] = week 4, polymer emulsion pH 6.5
[8] = week 5, polymer emulsion pH 6.5
[9] = week 6, polymer emulsion pH 6.5

With `[O-][n+]1ccccc1[S-].[O-][n+]1ccccc1[S-].[Zn+2]` [ZPT, zinc bis[2-pyridinethiolate]-N,N-dioxide] the “Activity of the biocides determined 1 week after germ addition, week 1” value (“Activity of the biocides … week 1” below) [1, 4] was 0 (no reduction or only a minor reduction of the microbe level is observed (residual level of at least 10^5 bacteria/10^4 mold/yeast cells per g) (score of 0=poor)), the “Activity of the biocides determined 1 week after germ addition, week 2” value (shortened to “Activity of the biocides … week 2”) [1, 5] was 0 (no reduction or only a minor reduction of the microbe level is observed (residual level of at least 10^5 bacteria/10^4 mold/yeast cells per g) (score of 0=poor)) and the “Activity of the biocides determined 1 week after germ addition, week 3” value (“Activity of the biocides … week 3” for short) [1, 6] was 0 (no reduction or only a minor reduction of the microbe level is observed (residual level of at least 10^5 bacteria/10^4 mold/yeast cells per g) (score of 0=poor)). For the same molecule, the “Activity of the biocides determined 1 week after germ addition, week 4” value (“Activity of the biocides … week 4” below) [1, 7] was 0 (no reduction or only a minor reduction of the microbe level is observed (residual level of at least 10^5 bacteria/10^4 mold/yeast cells per g) (score of 0=poor)), the “Activity of the biocides determined 1 week after germ addition, week 5” value (shortened to “Activity of the biocides … week 5”) [1, 8] was 0 (no reduction or only a minor reduction of the microbe level is observed (residual level of at least 10^5 bacteria/10^4 mold/yeast cells per g) (score of 0=poor)) and the “Activity of the biocides determined 1 week after germ addition, week 6” value (“Activity of the biocides … week 6” for short) [1, 9] was 0 (no reduction or only a minor reduction of the microbe level is observed (residual level of at least 10^5 bacteria/10^4 mold/yeast cells per g) (score of 0=poor)). The “Activity of the biocides … week 1” value [2, 4] was 2 (markedly reduced microbe level is observed (10^3−10^1 bacteria/10^2−10^1 mold/yeast cells per g) (score of 2=good)), the “Activity of the biocides … week 2” value [2, 5] was 2 (markedly reduced microbe level is observed (10^3−10^1 bacteria/10^2−10^1 mold/yeast cells per g) (score of 2=good)) and the “Activity of the biocides … week 3” value [2, 6] was 2 (markedly reduced microbe level is observed (10^3−10^1 bacteria/10^2−10^1 mold/yeast cells per g) (score of 2=good)). For the same molecule, the “Activity of the biocides … week 4” value [2, 7] was 2 (markedly reduced microbe level is observed (10^3−10^1 bacteria/10^2−10^1 mold/yeast cells per g) (score of 2=good)), the “Activity of the biocides … week 5” value [2, 8] was 2 (markedly reduced microbe level is observed (10^3−10^1 bacteria/10^2−10^1 mold/yeast cells per g) (score of 2=good)) and the “Activity of the biocides … week 6” value [2, 9] was 2 (markedly reduced microbe level is observed (10^3−10^1 bacteria/10^2−10^1 mold/yeast cells per g) (score of 2=good)). The “Activity of the biocides … week 1” value [3, 4] was 2 (markedly reduced microbe level is observed (10^3−10^1 bacteria/10^2−10^1 mold/yeast cells per g) (score of 2=good)), the “Activity of the biocides … week 2” value [3, 5] was 2 (markedly reduced microbe level is observed (10^3−10^1 bacteria/10^2−10^1 mold/yeast cells per g) (score of 2=good)) and the “Activity of the biocides … week 3” value [3, 6] was 2 (markedly reduced microbe level is observed (10^3−10^1 bacteria/10^2−10^1 mold/yeast cells per g) (score of 2=good)). The “Activity of the biocides … week 4” value [3, 7] was 2 (markedly reduced microbe level is observed (10^3−10^1 bacteria/10^2−10^1 mold/yeast cells per g) (score of 2=good)), the “Activity of the biocides … week 5” value [3, 8] was 2 (markedly reduced microbe level is observed (10^3−10^1 bacteria/10^2−10^1 mold/yeast cells per g) (score of 2=good)) and the “Activity of the biocides … week 6” value [3, 9] was 2 (markedly reduced microbe level is observed (10^3−10^1 bacteria/10^2−10^1 mold/yeast cells per g) (score of 2=good)).
